Experimental data: US7119095B2, “Pharmaceutically active compounds and methods of use thereof” (Dana Farber Cancer Institute, priority 2001, dated 2006)

What was measured:
[1] = molecular target: T1, T. gondii DHFR (Toxoplasma gondii, UniProt Q07422); format: biochemical; details: compounds 3a-k
T1 sequence (Q07422 1-610): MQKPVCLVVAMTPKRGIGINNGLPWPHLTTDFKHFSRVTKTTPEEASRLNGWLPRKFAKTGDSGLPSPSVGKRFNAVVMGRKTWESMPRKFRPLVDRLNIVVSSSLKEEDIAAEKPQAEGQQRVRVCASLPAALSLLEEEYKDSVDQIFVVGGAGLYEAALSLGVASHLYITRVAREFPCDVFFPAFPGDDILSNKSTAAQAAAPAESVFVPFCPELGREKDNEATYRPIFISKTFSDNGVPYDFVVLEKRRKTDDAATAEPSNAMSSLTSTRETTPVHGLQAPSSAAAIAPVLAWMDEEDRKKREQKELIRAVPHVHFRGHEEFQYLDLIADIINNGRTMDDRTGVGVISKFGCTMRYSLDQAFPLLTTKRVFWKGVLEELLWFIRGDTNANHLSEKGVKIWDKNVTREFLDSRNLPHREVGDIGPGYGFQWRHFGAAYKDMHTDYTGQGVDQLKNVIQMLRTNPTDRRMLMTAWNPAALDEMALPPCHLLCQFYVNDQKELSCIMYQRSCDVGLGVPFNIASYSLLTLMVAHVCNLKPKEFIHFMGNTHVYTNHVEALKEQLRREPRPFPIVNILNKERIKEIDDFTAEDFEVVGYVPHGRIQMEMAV

[2] = molecular target: T2, rat liver DHFR (Rattus norvegicus, UniProt Q920D2); experiment: Inhibition of rat liver DHFR (literature assay); details: read-out: IC50 (μM) Rat liver, compounds 3a-k
T2 sequence (Q920D2 1-187): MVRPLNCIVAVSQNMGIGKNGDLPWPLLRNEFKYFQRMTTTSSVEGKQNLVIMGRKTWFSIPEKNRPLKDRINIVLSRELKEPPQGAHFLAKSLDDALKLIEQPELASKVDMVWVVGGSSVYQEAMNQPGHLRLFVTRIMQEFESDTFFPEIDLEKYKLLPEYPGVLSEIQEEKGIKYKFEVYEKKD

[3] = molecular target: T3, M. avium DHFR (Mycobacterium avium, UniProt O30463); experiment: Inhibition of M. avium DHFR (literature assay); format: biochemical; details: compounds 3a-k
T3 sequence (O30463 1-181): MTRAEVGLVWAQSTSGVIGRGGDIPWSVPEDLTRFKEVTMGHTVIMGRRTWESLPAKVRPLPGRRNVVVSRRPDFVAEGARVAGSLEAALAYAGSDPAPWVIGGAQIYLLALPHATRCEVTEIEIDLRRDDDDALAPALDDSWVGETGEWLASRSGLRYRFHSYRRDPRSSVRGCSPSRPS

[4] = molecular target: E. coli DHFR (Escherichia coli, UniProt P0ABQ4); details: Kuyper et al., J. Med. Chem. 1985; cited from earlier work
[5] = molecular target: T1, T. gondii DHFR; details: reported in the literature; cited from earlier work

Compound | IC50 [1] | IC50 [2] | IC50 [3] | Ki E. coli DHFR [4] | selectivity T. gondii versus rat liver DHFR [5]
CCCCCOc1ccc(OC)c(Cc2cnc(N)nc2N)c1 [Compound 3a, 2,4-Diamino-5-(2-methoxy-5-pentyloxybenzyl)pyrimidine] | 6.5 µM | 44 µM | 0.31 µM | – | –
CCCCCCOc1ccc(OC)c(Cc2cnc(N)nc2N)c1 [Compound 3b, 2,4-Diamino-5-(2-methoxy-5-hexyloxybenzyl)pyrimidine] | 9.2 µM | 29 µM | 0.39 µM | – | –
CCCCCCCOc1ccc(OC)c(Cc2cnc(N)nc2N)c1 [Compound 3c, 2,4-Diamino-5-(2-methoxy-5-heptyloxybenzyl)pyrimidine] | 5 µM | 11 µM | 0.89 µM | – | –
CCCCCCCCOc1ccc(OC)c(Cc2cnc(N)nc2N)c1 [Compound 3d, 2,4-Diamino-5-(2-methoxy-5-octyloxybenzyl)pyrimidine] | 15 µM | 30 µM | – | – | –
CCCCCCCCCOc1ccc(OC)c(Cc2cnc(N)nc2N)c1 [Compound 3e, 2,4-Diamino-5-(2-methoxy-5-nonyloxybenzyl)pyrimidine] | 32 µM | 86 µM | 32 µM | – | –
COc1ccc(OCCCC(=O)O)cc1Cc1cnc(N)nc1N [Compound 3f] | 0.18 µM | 2.6 µM | 0.0048 µM | – | –
COc1ccc(OCCCCCC(=O)O)cc1Cc1cnc(N)nc1N [Compound 3h] | 0.48 µM | 17 µM | 0.15 µM | – | –
COc1ccc(OCCCCCCC(=O)O)cc1Cc1cnc(N)nc1N [Compound 3i] | – | 12 µM | 0.19 µM | – | –
COc1ccc(OCCCCCCCC(=O)O)cc1Cc1cnc(N)nc1N [Compound 3j] | 0.36 µM | 12 µM | 0.13 µM | – | –
COc1ccc(OCCCCCCCCC(=O)O)cc1Cc1cnc(N)nc1N [Compound 3k] | 0.43 µM | 12 µM | – | – | –
COc1cc(Cc2cnc(N)nc2N)cc(OCCCCCC(=O)O)c1OC [Compound 18] | – | – | – | highest affinity | –
CCOc1cc(Cc2cnc(N)nc2N)cc(OCC)c1-n1cccc1 [Compound 19, epiroprim] | – | – | – | – | 155
